Data as given in patent US11464773B2, “Nutlin-3a for treatment of proliferative vitreoretinopathy” (The Schepens Eye Research Institute, Inc., priority 2012, dated 2022).
Entries after “also recorded” stand apart in the source; their conditions may differ.

Tests used:
[1] = system: primary rabbit conjunctival fibroblasts (RCFs); assay: Collagen I contraction assay, RV-induced, RCFs; format: cell-based; settings: Nutlin-3a 10 μM, gel measured on day 3
Procedure: (§1) FIG. 1A is a photograph of a western blot showing the impact of Nutlin-3a on RV-mediated signaling events. Primary rabbit conjunctival fibroblasts (RCFs) were pre-treated with either Nutlin-3a (10 μM), or vehicle for 30 min and then exposed to either RV (diluted 1:3 in Dulbecco's Modified Eagle Medium (DMEM)), or DMEM for 2 hr. The resulting cell lysates were subjected to western blot analysis using the indicated antibodies. The numbers are a ratio of p-PDGFRα/PDGFRα, p-Akt/Akt or p53/RasGAP (Ras GTPase) activating protein. […] FIG. 1B is a bar chart showing the impact of Nutlin-3a on RV-mediated contraction. RCFs were subjected to the collagen contraction assay as described above. Nutlin-3a (10 μM) or vehicle was included as indicated. The data were subjected to a paired t test; “*” denoted a statistically significant difference.
(§2) Cells were trypsinized, washed and resuspended in 1.5 mg/ml of neutralized collagen I (INAMED, Fremont, Calif.) (pH 7.2) at a density of 1×10^6 cells/ml for RPEM or 5×10^4 cells/ml for RCFs. The mixture was aliquoted into wells of a 24-well plate that had been preincubated overnight with 5 mg/ml bovine serum albumin in PBS. […] The media were replaced every day, and the gel diameter was measured on day 3. The gel area was calculated using the formula πr2, where r is the radius of the gel.

p53 [2] = assay: Western blot: RV-mediated decline in the level of p53 in RCFs; format: cell-based, rabbit
Procedure: as §1
FIGS. 8A-8B include a series of photographs showing the minimum effective dose and maximum tolerated dose of Nutlin-3a. FIG. 8A is a series of photomicrographs of western blots showing RCFs pretreated with the indicated concentrations of Nutlin-3a for 30 min, and then exposed to RV (diluted 1:3 in DMEM) for 2 hours. […]
(§3) Cells were grown to 90% confluence in serum-containing medium, and then incubated for 24 hr in medium without serum. […] Signal intensity was determined by densitometry and analyzed with the Quantity One (Bio-Rad) software.

[3] = system: upstream signaling events; assay: Western blot: HV-mediated upstream signaling events in RPE cells from a human PVR membrane; format: cell-based; settings: RPE cells from human epiretinal membrane, HV diluted 1:3
Text: (§4) FIGS. 7A-7B include a photograph of a western blot and a bar chart showing p53 attenuated human vitreous humor (HV)-driven collagen gel contraction. FIG. 7A is a photograph of a western blot showing the impact of Nutlin-3a on HV-mediated signaling events. Methods were the same as FIG. 3A, but the RPE cells from a human patient epiretinal membrane were used in place of RCF, and HV (a pool of vitreous from 5 PVR patients diluted 1:3 in DMEM) was used in place of RV. The data presented are representative of three independent experiments. FIG. 7B is a bar chart showing the impact of Nutlin-3a on HV-mediated contraction. This experiments were the same as FIG. 3B with the modification noted in FIG. 7A. The data were subjected to a paired t test. “*” denoted a statistically significant difference. The data shown are representative of three independent experiments.
(§5) RPEM cells are RPE cells derived from a human epiretinal membrane, as previously described (Wong C A et al., 2002 Can J Ophthalmol, 37:211-220). Primary rabbit conjunctival fibroblasts (RCFs) were obtained and cultured as described previously (Ikuno Y et al., 2002 Invest Ophthalmol Vis Sci, 43:2406-2411). […]
as §3

[4] = system: RPE cells isolated from a human PVR membrane; assay: Collagen contraction assay, HV-stimulated, RPE cells from a human PVR membrane; format: cell-based; settings: RPE cells from human epiretinal membrane, HV diluted 1:3
Text: as §4
RPEM cells are RPE cells derived from a human epiretinal membrane, as previously described (Wong C A et al., 2002 Can J Ophthalmol, 37:211-220). […]
as §2, with “RCFs.” for “RCFs. The mixture was aliquoted into wells of a 24-well plate that had been preincubated overnight with 5 mg/ml bovine serum albumin in PBS.”

retina = assay: Retinal toxicity after intravitreal injections in rabbits; format: in vivo; settings: multiple intravitreal injection of up to 20 micromolar, day 0, 2 and 4; fundus exams to day 14, histology
Procedure: FIGS. 9A-9B include a series of photographs showing epiretinal membranes from rabbits subjected to the PVR protocol. Rabbits that underwent a gas vitrectomy were intravitreally injected with the indicated concentration of Nutlin-3a on day 0, 2 and 4. The rabbits underwent a fundus examination on day 1, 3, 5, 7 and 14. Following the last fundus exam rabbits were euthanized, eyes were enucleated and fixed in 10% formalin. Sections were prepared, stained with hematoxylin and eosin, and then photographed. Representative photos of a Nutlin-3a (FIG. 9A) and vehicle (FIG. 9B) injected eye are presented. Arrowheads and arrows point to the retina and epiretinal membrane, respectively; scale bar: 50 μm. The lack of the retinal pigment epithelial cell layer is an artifact related to processing of the tissue.

p53 [5] = assay: Western blot: HV-mediated fall in the level of p53 in RPE cells from a human PVR membrane; format: cell-based; settings: RPE cells from human epiretinal membrane, HV pool of 5 PVR patients diluted 1:3
Text: as §4, §5, §3

[6] = system: proliferative vitreoretinopathy (PVR); assay: Rabbit model for PVR (Fastenberg scale); format: in vivo, Dutch Belted rabbits
Procedure: (§6) FIGS. 2A-2B include a dot plot and a series of photomicrographs showing that Nutlin -3a prevented retinal detachment and elevated p53 in epiretinal membranes. FIG. 2A is a dot plot illustrating the impact of Nutlin-3a on experimental PVR. RCFs were used to induce PVR as described below. The indicated rabbits received no additional injections (none) or 0.1 cc injections of either vehicle, or Nutlin-3a (20 μM) on day 0, 2 and 4. The data were subjected to an unpaired t test or one way Analysis of Variance (ANOVA) test; “*” denoted a statistically significant difference. FIG. 2B is a series of photographs showing that Nutlin-3a enhanced expression of p53 in epiretinal membranes. At the end of the experiment (day 28), the eyes were enucleated, and paraffin sections of whole eyes were subjected to p53 immunohistochemistry. The arrows point to the epiretinal membrane (the arrowheads denote the retina and the brown color indicates p53). The left and right panels are from a Nutlin-3a injected animal, whereas the middle panel is from a rabbit treated with vehicle. The left and middle panels were stained with the p53 antibody, whereas the right panel was stained with non-immune IgG. The scale bar is 50 μm.
PVR was induced in Dutch Belted rabbits, purchased from Covance (Denver, Pa.), as previously described (Lei H et al., 2009 Invest Ophthalmol Vis Sci, 50:3394-3403). Briefly, a gas vitrectomy was performed by injecting 0.1 ml of perfluoropropane (C3F8) (Alcon, Fort Worth, Tex.) into vitreous. One week later, the right eye of rabbits was injected in one of two ways. For the experiment injecting RCFs expressing shRNAs, 0.1 ml of DMEM containing 1×10^5 RCFs that were modified as outlined in the legend were injected along with 0.1 ml rabbit platelet-rich plasma. For the Nutlin-3a experiment, all rabbits were injected with 0.1 ml of DMEM containing 1×10^5 unmodified RCFs, 0.1 ml rabbit platelet rich plasma and either not injected a third time, or injected with vehicle, or 0.1 ml of 200 μM Nutlin-3a. The vehicle or Nutlin-3a injection was repeated on day 3 and 5. The retinal status was evaluated with an indirect ophthalmoscope fitted with a +30 D fundus lens on day 1, 3, 5, 7, 14, 21 and 28. PVR was graded according to the Fastenberg scale of classification 41: stage 0, no disease; stage 1, epiretinal membrane; stage 2, vitreoretinal traction without retinal detachment; stage 3, localized retinal detachment (1-2 quadrants); stage 4, extensive retinal detachment (2-4 quadrants without complete detachment); stage 5, complete retinal detachment. On day 28, animals were sacrificed, and eyes were enucleated and frozen at −80° C.

PDGFRα = assay: Western blot: RV-induced phosphorylation of PDGFRα in RCFs; format: cell-based, rabbit; settings: Nutlin-3a 10 μM, RV 2 hr
Procedure: as §1
(§7) Cells were grown to 90% confluence in serum-containing medium, and then incubated for 24 hr in medium without serum. Cells were stimulated (as detailed for each experiment), washed twice with ice-cold phosphate buffered saline (PBS), and lysed in extraction buffer (10 mM Tris-HCl, pH 7.4, 5 mM EDTA, 50 mM NaCl, 50 mM NaF, 1% Triton X-100, 20 μg/ml aprotinin, 2 mM Na3VO4, 1 mM phenylmethylsulfonyl fluoride). […] Signal intensity was determined by densitometry and analyzed with the Quantity One (Bio-Rad) software.

[7] = system: primary rabbit conjunctival fibroblasts (RCFs); assay: Maximum tolerated dose in cultured RCFs; format: cell-based; settings: RCFs in DMEM+5% FBS, medium replaced every 24 hours, day 3
Procedure: FIGS. 8A-8B include a series of photographs showing the minimum effective dose and maximum tolerated dose of Nutlin-3a. FIG. 8A is a series of photomicrographs of western blots showing RCFs pretreated with the indicated concentrations of Nutlin-3a for 30 min, and then exposed to RV (diluted 1:3 in DMEM) for 2 hours. Cells were lysed and resulting lysates were subjected to western blot analysis using the indicated antibodies. The data shown are representative of three independent experiments. FIG. 8B is a series of photographs showing RCFs grown to near confluence in DMEM+10% FBS, the medium was replaced with DMEM+5% FBS+the indicated concentration of Nutlin-3a. The medium was replaced every 24 hours, and the photographs were taken on day 3. The data shown are representative of two independent experiments. The scale bar is 50 μm.

Akt = assay: Western blot: RV-induced activation of Akt in RCFs; format: cell-based, rabbit; settings: Nutlin-3a 10 μM, RV 2 hr
Procedure: as §1, §7

p53 [8] = assay: p53 immunohistochemistry of epiretinal membranes from PVR rabbits; format: in vivo, rabbit; settings: day 28, immunohistochemistry
Procedure: as §6
Rabbit eyeballs were fixed in 10% formalin for 48 hr and embedded in paraffin after dehydration. […]

Fα cells = assay: Collagen contraction assay, RV-induced, Fα cells; format: cell-based, mouse; settings: Imatinib 10 μM, day 3
Text: (§8) FIGS. 10A-10B include a series of bar graphs showing that inhibiting PDGFRα kinase activity blocked RV-induced collagen contraction. The indicated RCFs (50,000 cells/ml) (FIG. 10A) or F cells (1 million cells/ml) (FIG. 10B) were subjected to a collagen contraction assays as described below. […] The panels below the bar graphs show photographs of representative gels; the data presented are representative of 3 independent experiments. The data were subjected to a paired t test; “*” denoted a statistically significant difference.
(§9) RPEM cells are RPE cells derived from a human epiretinal membrane, as previously described (Wong C A et al., 2002 Can J Ophthalmol, 37:211-220). Primary rabbit conjunctival fibroblasts (RCFs) were obtained and cultured as described previously (Ikuno Y et al., 2002 Invest Ophthalmol Vis Sci, 43:2406-2411). RCFs that stably expressed the shRNA targeting vector specific for GFP, PDGFRα, p53 or PDGFRα and p53 were designated sh GFP, sh PDGFRα sh p53 and sh PDGFRα/p53, respectively.
as §2, with “RCFs.” for “RCFs. The mixture was aliquoted into wells of a 24-well plate that had been preincubated overnight with 5 mg/ml bovine serum albumin in PBS.”

Fβ cells = assay: Collagen contraction assay, RV-induced, Fβ cells; format: cell-based, mouse; settings: Imatinib 10 μM, day 3
Text: as §8, §9
as §2, with “RCFs.” for “RCFs. The mixture was aliquoted into wells of a 24-well plate that had been preincubated overnight with 5 mg/ml bovine serum albumin in PBS.”

sh GFP cells = assay: Collagen contraction assay, RV-induced, sh GFP RCFs; format: cell-based, rabbit; settings: Imatinib 10 μM, day 3
Text: as §8
Cells were trypsinized, washed and resuspended in 1.5 mg/ml of neutralized collagen I (INAMED, Fremont, Calif.) (pH 7.2) at a density of 1×10^6 cells/ml for RPEM or 5×10^4 cells/ml for RCFs. The mixture was aliquoted into wells of a 24-well plate that had been preincubated overnight with 5 mg/ml bovine serum albumin in PBS. The collagen solution was solidified by incubating at 37° C. for 90 min, and overlaid with medium containing the desired agents. The media were replaced every day, and the gel diameter was measured on day 3. The gel area was calculated using the formula πr2, where r is the radius of the gel.

Compound: COc1ccc(C2=N[C@@H](c3ccc(Cl)cc3)[C@@H](c3ccc(Cl)cc3)N2C(=O)N2CCNC(=O)C2)c(OC(C)C)c1 (single isomer, unassigned) [Nutlin-3a]
- RV-mediated contraction of collagen gels [1]: effectively blocked
- RV-mediated decline in the level of p53 (p53 [2]; RCFs pre-treated with Nutlin-3a 10 μM 30 min, then RV (1:3 in DMEM) 2 hr): effectively blocked
- minimum dose to prevent the RV-induced reduction of p53 (p53 [2]; RCFs pretreated 30 min, RV (1:3) 2 hours): 2 µM
- upstream signaling events in HV-treated cells [3]: without impacting upstream signaling events
- HV-stimulated contraction of RPE-containing collagen gels [4]: inhibited
- overt signs of retinal toxicity (retina): did not produce overt signs of retinal toxicity
- HV-induced fall in the level of p53 (p53 [5]): prevented the precipitous fall
- animals that succumbed to even partial retinal detachment (stage 3 or 4) ([6]; by day 28, intravitreal Nutlin-3a injections): 0%
- formation of epiretinal membranes (stage 1 and 2) ([6]; intravitreal Nutlin-3a injections, to day 28): slowed formation of membranes; also recorded: did form membranes
- retinal detachment ([6]; series of intravitreal injections): completely prevented
- rabbits that developed vitreal traction (stage 2) ([6]; series of intravitreal injections, end of experiment (day 28)): 50%
- RV-induced phosphorylation of PDGFRα (PDGFRα): no effect
- maximum tolerated dose [7]: 30 µM
- RV-induced activation of Akt (Akt): no effect
- p53 level in epiretinal membranes versus vehicle-injected controls (p53 [8]): higher

Compound: Cc1ccc(NC(=O)c2ccc(CN3CCN(C)CC3)cc2)cc1Nc1nccc(-c2cccnc2)n1 [Imatinib]
- RV-stimulated contraction in cells expressing PDGFRα (Fα) (Fα cells): erased
- RV-induced contraction in cells expressing PDGFRβ (Fβ) (Fβ cells): did not improve RV-induced contraction or generate sensitivity to Imatinib
- RV-induced contraction in sh GFP cells (sh GFP cells): completely blocked
